Measured values as given in patent publication US10202340B2, “Glucosylceramide synthase inhibitors and therapeutic methods using the same” (THE REGENTS OF THE UNIVERSITY OF MICHIGAN, priority 2015, dated 2019).
Where a name gives a salt, the structure may show the parent alone. Read-outs that look alike come from different tables or passages of the source.

What was measured:
[1] = molecular target: GCS in WT-MDCKII cells (Canis lupus familiaris, UniProt A0A8I3MXG6); assay: Inhibition of GlcCer production in whole wild-type MDCKII cells; assay type: cell-based, canine; conditions: 24 hours, read-out: WT-MDCK IC50
Chain of GCS in WT-MDCKII cells (A0A8I3MXG6 1-394): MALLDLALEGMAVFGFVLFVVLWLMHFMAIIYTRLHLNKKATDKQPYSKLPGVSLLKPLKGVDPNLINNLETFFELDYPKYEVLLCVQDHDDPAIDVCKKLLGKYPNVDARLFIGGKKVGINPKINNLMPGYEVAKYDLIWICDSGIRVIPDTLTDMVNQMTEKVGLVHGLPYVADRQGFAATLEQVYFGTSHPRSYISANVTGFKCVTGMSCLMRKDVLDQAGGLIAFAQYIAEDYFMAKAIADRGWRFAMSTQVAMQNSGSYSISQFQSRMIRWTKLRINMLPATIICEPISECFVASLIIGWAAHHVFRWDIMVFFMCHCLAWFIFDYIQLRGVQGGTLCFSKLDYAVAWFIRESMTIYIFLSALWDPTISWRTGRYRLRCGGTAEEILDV
Procedure: (§1) Parental (WT-)MDCKII cells and MDCKII cells retrovirally transduced with human MDR-1 cDNA were obtained from the Netherlands Cancer Institute. Both cell lines were routinely maintained in medium consisting of Opti-MEM/F12 (1:1), 5% FBS, 100 U/mL of penicillin, 100 μg/mL streptomycin and […] L-glutamine. MDCKII cells were newly thawed from frozen ampules every two months.
(§2) Stock solutions of water-insoluble glycosphingolipid inhibitors (100 mM) were prepared by dissolving each inhibitor into 100% ethanol as previously described (3). The inhibitor-ethanol solutions then were diluted 50× into 2 mM delipidated bovine serum albumin-phosphate buffered saline solution to make water-soluble glycosphingolipid inhibitor-bovine serum albumin complexes. The inhibitor-bovine serum album complexes were sterile-filtered and stored at −20° C. Prior to use, portions of the inhibitor-bovine serum albumin complexes were further diluted with Opti-F12 to make treatment solutions. Equal amounts of bovine serum albumin and ethanol were added into the control cultures. WT and MDR1-MDCKII cells (5×10^5) were seeded into 10-cm culture dishes containing 10 ml of Opti-F12 with 5% FBS.
(§3) Following inhibitor treatment, whole cellular lipids of wild type and MDR1-MDCKII cells were extracted as previously described in detail (10). Briefly, cells were washed with ice-cold phosphate buffered saline, fixed by methanol, and collected with rubber scraper. Chloroform was then added to yield a theoretical ratio of chloroform:methanol:water at 1:2:0.8 (v/v/v) to form a mono-phase. Cell debris and proteins were removed by centrifugation at 2200×g for 30 min. The supernatants were portioned by adding chloroform and 0.9% NaCl. The lower organic phases containing neutral glycosphingolipids lipids were washed with methanol and 0.9% NaCl, and subjected to base- and acid-hydrolysis (10). A portion of purified glycosphingolipids normalized to 100 nmol of total phospholipids was analyzed by high performance thin layer chromatography. The thin layer chromatography separations were processed twice. The plate pretreated with 1% sodium borate was first developed in a solvent system consisting of chloroform/methanol (98/2, v/v). After air drying, the plate was then developed in a solvent system containing chloroform/methanol/water (70/30/4, v/v/v). The levels of glucosylceramide were detected by charring with 8% cupric sulfate in 8% phosphoric acid, and quantified by densitometric scanning using ImageJ, NIH Image.

[2] = Mouse liver microsome stability; assay type: in vitro ADME; conditions: mouse liver microsomes; read-out: Mouse liver microsome t1/2
Procedure: Selected compounds were incubated with mouse liver microsomes to assess their stability to oxidative metabolism by cytochrome P450 enzymes (Table 1).

[3] = molecular target: GCS in MDR1-MDCKII cells (Canis lupus familiaris, UniProt A0A8I3MXG6); conditions: read-out: MDR1-MDCKII IC50; MDCKII cells stably expressing human MDR1, 24 hours
Chain of GCS in MDR1-MDCKII cells (A0A8I3MXG6 1-394): as above
Procedure: as §1, §2, §3

[4] = Brain and plasma drug levels after single oral dose in CD-1 mice; assay type: in vivo, mouse
[5] = test system: brain glucosylceramide (GlcCer); assay: Brain glucosylceramide (GlcCer) content in WT mice; assay type: in vivo, mouse; conditions: for reduction of brain GlcCer levels / reduction in brain GlcCer levels: WT mice
Procedure: Lipid extractions of liver, kidney, and brain were performed as previously described (7). Briefly, frozen liver (about 0.5 g), two kidneys (about 0.3 g) and whole brain (about 0.4 g) were individually homogenized in sucrose buffer (250 mM sucrose, pH 7.4, 10 mM HEPES and 1 mM EDTA), at 0.2 g tissue/1 mL of sucrose buffer, with a Tri-R homogenizer. Each 0.8 mL of homogenate was mixed with 2 mL of methanol and 1 mL of chloroform, bath sonicated for 1 min and incubated at room temperature for 1 h. Tissue debris were removed by centrifugation at 2,400× gravity for 30 min. The pellets were re-extracted by mixing with 1 mL of methanol, 0.5 mL of chloroform and 0.4 mL of 0.9% NaCl (chloroform/methanol/0.9% NaCl, 1:2:0.8), incubated at room temperature for 1 h and centrifuged at 2,400× gravity for another 30 min. Two extracts were combined and mixed with 4.5 mL of chloroform and 1.2 mL of 0.9% NaCl (chloroform/methanol/0.9% NaCl, 2:1:0.8). After centrifugation at 800× gravity for 5 min, lower layer was washed with 3 mL of methanol and 2.4 mL of 0.9% NaCl. Second washing was carried with 3 mL of methanol, 2 mL of water and 0.4 mL of 0.9% NaCl followed by a 5 min centrifugation at 800× gravity. The resultant lower phase was collected and dried under a stream of N2 gas.
The analysis of neutral glycosphingolipids from mouse liver, kidney, and brain was processed after alkaline methanolysis. […] lipids were incubated with 2 mL of chloroform and 1 ml of 0.21N NaOH in methanol for 2 h (kidney) or 7.5 h (liver and brain) at RT. The lipid extract was normalized to 0.5 μmol of total phospholipid phosphate (liver and kidney) or 2 μmol of total phospholipid phosphate (brain) for high performance thin layer chromatography analysis. After alkaline methanolysis, the brain lipids were passed through a silica gel column (7). Borate-impregnated thin layer chromatography plates were developed in a two solvent system. Plates were first developed in chloroform/methanol (98:2, v/v). The plates loaded with kidney and liver lipids were then developed in chloroform/methanol/water (64:24:4, v/v/v), and brain lipids were further separated in chloroform/methanol/water (60:30:6, v/v/v). GlcCer levels were quantified by comparison to known standards.
In another test, a dose ranging study for brain glucosylceramide (GlcCer) content was performed using the compound of Example 7. FIG. 1 contains bar graphs showing the GluCer levels in treated and untreated WT mouse brain at low doses for 3 days (FIG. 1A) and high doses for 3 days (FIG. 1B). […] FIG. 1C compares the GlcCer levels in treated and untreated WT mouse brain for 7 days comparing oral gavage vs. IP injection. […] FIG. 2 contains comparative brain GlcCer level data obtained with the Control Compound, dosed at 10 mg/kg IP (FIG. 2A) or 60 mg/kg IP (FIG. 2B) in WT mice for 3 days.

[6] = molecular target: glucosylceramide synthase (GCS) (Canis lupus familiaris, UniProt A0A8I3MXG6); assay: GCS activity, broken cell assay (inhibition of GlcCer synthesis in broken wild-type MDCK cell preparations); assay type: biochemical, canine; conditions: mean of n > 2 experiments
Chain of glucosylceramide synthase (GCS) (A0A8I3MXG6 1-394): as above
Procedure: Enzyme activity was measured as described previously (9). Madin-Darby canine kidney (MDCK) cell homogenates (120 μg of protein) were incubated with uridine diphosphate-[^3H]glucose (100,000 cpm) and liposomes consisting of 85 μg of octanoylsphingosine, 570 μg of dioleoylphosphatidylcholine, and 100 μg of sodium sulfatide in a 200 μL reaction mixture and kept for 1 h at 37° C.

[7] = mouse, brain, single 20 mg/kg PO, female CD-1 mice, read-out: Drug level in brain
[8] = mouse, plasma, single 20 mg/kg PO, female CD-1 mice, read-out: Drug level in plasma
[9] = mouse, plasma, single 20 mg/kg PO, female CD-1 mice, 7 hrs, read-out: Drug level in plasma

Compound `O=C(CC1Cc2ccccc2C1)N[C@H](CN1CCCC1)[C@H](O)c1ccc2c(c1)OCCO2` [control] has an IC50 [1] of 15 nM, a half-life [2] of 1.5 min and an IC50 [3] of 24 nM. The Kp at 1 h ([4]; female, mouse, brain/plasma, 20 mg/kg, single oral dose, CD-1 mice, at one hour, read-out: brain/plasma ratio) was 0.25, the concentration at 1 h [4, 7] was 5 ng/g and the concentration at 1 h [4, 8] was 20 ng/g. For the same compound, the concentration at 7 h [4, 9] was 9 ng/g, the “Drug level in brain” value ([4]; single 20 mg/kg PO, female CD-1 mice, 7 hrs) was “BLQ*” and the “reduction of brain GlcCer levels” value ([5]; 60 mg/kg IP, 3 days) was 17%.

Work on `O=C(CC1Cc2ccccc2C1)N[C@H](CN1CC[C@@H](F)C1)[C@H](O)c1ccc(OC(F)(F)F)cc1` [Example 16, 2-(2,3-dihydro-1H-inden-2-yl)-N-((1R,2R)-3-((R)-3-fluoropyrrolidin-1-yl)-1-hydroxy-1-(4-(trifluoromethoxy)phenyl)propan-2-yl)acetamide] yielded an IC50 [1] of 23 nM, an IC50 [6] greater than 300 nM and an IC50 [3] of 47 nM.

`O=C(CC1Cc2ccccc2C1)N[C@H](CN1CCCC1)[C@H](O)c1ccc(OCC2CC2)cc1` [Example 11, N-((1R,2R)-1-(4-(cyclopropylmethoxy)phenyl)-1-hydroxy-3-(pyrrolidin-1-yl)propan-2-yl)-2-(2,3-dihydro-1H-inden-2-yl)acetamide] showed an IC50 [1] of 1 nM, an IC50 [6] of 46 nM and an IC50 [3] of 0.84 nM.

With `O=C(CC1Cc2ccccc2C1)N[C@H](CN1CCCC1)[C@H](O)c1ccc(OCC(F)(F)F)cc1` [Example 12, 2-(2,3-dihydro-1H-inden-2-yl)-N-((1R,2R)-1-hydroxy-3-(pyrrolidin-1-yl)-1-(4-(2,2,2-trifluoroethoxy)phenyl)propan-2-yl)acetamide] the half-life [2] was 11 min.

`COc1ccc([C@@H](O)[C@@H](CN2CCCC2)NC(=O)CC2Cc3ccccc3C2)cc1` [Example 2, 2-(2,3-dihydro-1H-inden-2-yl)-N-((1R,2R)-1-hydroxy-1-(4-methoxyphenyl)-3-(pyrrolidin-1-yl)propan-2-yl)acetamide] gave a half-life [2] of 5.5 min.

`COc1ccccc1[C@@H](O)[C@@H](CN1CCCC1)NC(=O)CC1Cc2ccccc2C1` [Example 4, 2-(2,3-dihydro-1H-inden-2-yl)-N-((1R,2R)-1-hydroxy-1-(2-methoxyphenyl)-3-(pyrrolidin-1-yl)propan-2-yl)acetamide] gave an IC50 [1] of 5 nM, an IC50 [6] of 44 nM and an IC50 [3] of 56 nM.

Compound `O=C(CC1Cc2ccccc2C1)N[C@H](CN1CCCC1)[C@H](O)c1ccc(OC(F)(F)F)cc1` [Example 7, 2-(2,3-dihydro-1H-inden-2-yl)-N-((1R,2R)-1-hydroxy-3-(pyrrolidin-1-yl)-1-(4-(trifluoromethoxy)phenyl)propan-2-yl)acetamide] has a half-life [2] of 37 min, a concentration at 1 h [4, 7] of 193 ng/g and a concentration at 7 h ([4]; mouse, brain, single 20 mg/kg PO, female CD-1 mice, 7 hrs, read-out: Drug level in brain) of 68 ng/g. The concentration at 1 h [4, 8] was 463 ng/g, the concentration at 7 h [4, 9] was 52 ng/g and the “reduction in brain GlcCer levels” value ([5]; 1 mg/kg IP, 3 days) was “Near maximal reduction”. For the same compound, the “reduction of brain GlcCer levels” value ([5]; 1 mg/kg IP, 3 days) was 35% and the “reduction in brain GlcCer levels” value ([5]; oral dosing at 10 mg/kg, 7 days) was “significant reductions”.

Work on `O=C(CC1Cc2ccccc2C1)N[C@H](CN1CCCC1)[C@H](O)c1cccc(OC(F)(F)F)c1` [Example 14, 2-(2,3-dihydro-1H-inden-2-yl)-N-((1R,2R)-1-hydroxy-3-(pyrrolidin-1-yl)-1-(3-(trifluoromethoxy)phenyl)propan-2-yl)acetamide] yielded an IC50 [1] of 50 nM.

With `COc1ccc([C@@H](O)[C@@H](CN2CCCC2)NC(=O)CC2Cc3ccccc3C2)cc1F` [Example 1, 2-(2,3-dihydro-1H-inden-2-yl)-N-((1R,2R)-1-(3-fluoro-4-methoxyphenyl)-1-hydroxy-3-(pyrrolidin-1-yl)propan-2-yl)acetamide] the half-life [2] was 2.7 min.

With `CCCCCCCC(=O)N[C@H](CN1CCCC1)[C@H](O)c1ccc2c(c1)OCCO2` [eliglustat tartrate, N-((1R,2R)-1-(2,3-dihydrobenzo-[b][1,4]dioxin-6-yl)-1-hydroxy-3-(pyrrolidin-1-yl)propan-2-yl)octanamide, reference compound] the “decrease in brain glucosylceramide content” value ([5]; mice, intraperitoneal administration for 3 days) was “not seen”.

`O=C(CC1Cc2ccccc2C1)N[C@H](CN1CCC1)[C@H](O)c1ccc(OC(F)(F)F)cc1` [Example 17, N-((1R,2R)-3-(azetidin-1-yl)-1-hydroxy-1-(4-(trifluoromethoxy)phenyl)propan-2-yl)-2-(2,3-dihydro-1H-inden-2-yl)acetamide] gave a half-life [2] greater than 60 min.

`COc1cccc([C@@H](O)[C@@H](CN2CCCC2)NC(=O)CC2Cc3ccccc3C2)c1` [Example 3, 2-(2,3-dihydro-1H-inden-2-yl)-N-((1R,2R)-1-hydroxy-1-(3-methoxyphenyl)-3-(pyrrolidin-1-yl)propan-2-yl)acetamide] showed a half-life [2] of 4 min.
